These results are taken from patent US7449114B2, “Halogenated solvent remediation” (SRP Technologies, Inc., priority 2000, dated 2008).

Data set [1] relates to PCE/TCE plume in ground water. The data set is described as follows: Sodium lactate injection pilot test, Tennessee Air National Guard Site, Memphis (Example 3). To be noted: after 8 months and 4 lactate injections. An excerpt: Site Background. A site-wide Remedial Investigation (RI) identified a chlorinated solvent plume in a sandy aquifer approximately 35 to 60 feet (10.7 to 18.3 m) below ground surface at the 164th Airlift Wing at the Tennessee Air National Guard Site, Memphis, Tenn. The plume area targeted for treatment was over 2 acres (0.81 hectares). This unconfined saturated interval is overlain by an inorganic loess vadose zone and is separated from the deeper regional aquifer by a clay unit. PCE concentrations ranged from 5 to 1,000 μg/L in the target area, while TCE ranged from 100 to greater than 15,000 μg/L in the injection/monitoring wells. […] A pilot test of a sodium lactate injection system to enhance natural reductive dechlorination in the groundwater was approved by the Tennessee Department of Environment and Conservation, the Memphis and Shelby County Health Department, and the Shelby County Ground Water Control Board.
System Design. A three-dimensional model to simulate groundwater flow was developed using the MODFLOW simulator (U.S. Geological Survey). Once calibrated, model simulations were used to determine the optimal injection well locations, as well as the rate and duration of injection. Based on the results of other sodium lactate injection sites, a period of 60 days between injections was assumed. The optimal configuration was determined to be a 9-well injection system at an injection rate of 10 gallons per minute (gpm; 37.8 liters/minute) for 5 days.
Potable water was mixed with 60% sodium lactate to create a 1% solution. An existing 8-inch (20.3-cm) water line was tapped and connected to the distribution control header via a 4-inch (10.2-cm) line, which was housed in a portable 12-ft×14-ft (3.6-m×4.3-m) building. A double-check valve assembly was installed on the 4-inch (10.2-cm)water line to prevent back-siphoning of the injection solution into the 8-inch (20.3-cm) potable water line. Following a mixing zone with the potable water, the resulting 1% solution was delivered to the nine injection wells. […]

The nature of data set [2]: Interfacial tension between electron donor solutions and nonaqueous phase TCE, pendant drop method. To be noted: 0% ethyl lactate. In kind it is physicochemical. The method, then:
(§1) Based on the field results presented in Example 1, laboratory studies were performed to confirm that the enhanced bioavailability of TCE observed in the field was due to co-solvent or surfactant behavior resulting from the use of high concentrations of sodium lactate. Two fundamental properties used to screen the co-solvent or surfactant properties of a solution are surface tension and interfacial tension. Surface tension measures the force per unit length along the interface between a liquid and air due to its tension. When a co-solvent or surfactant is present in an aqueous liquid at increasing concentrations, the surface tension of that liquid decreases. Interfacial tension is similar to surface tension except that it measures the force per unit length along the interface between two liquid phases arising from the surface free energy. The higher the interfacial tension between two liquids, the less likely one is to dissolve into the other, and the more difficult it is for one to be transported within the other. […]
The laboratory study performed to confirm the co-solvent properties of the high concentration electron donor solution measured the surface tension of electron donor solutions at various concentrations. Next, interfacial tensions between the same electron donor solutions and nonaqueous phase TCE were measured. […]

The subject of data set [3] is chlorinated ethenes (PCE, TCE) in groundwater. The data set is described as follows: Biostimulation pilot test, IR Site 40, Seal Beach (Example 4). The method, then: A biostimulation pilot-test program for in situ anaerobic bioremediation of chlorinated ethenes in groundwater was conducted at Installation Restoration (IR) Program Site 40, Naval Weapons Station Seal Beach, Calif. IR Site 40 includes a concrete pit in a locomotive shop building and a gravel area north of and adjacent to the building. Oil and solvents spilled during locomotive maintenance collected in the pit and discharged to the gravel area via a drainpipe (FIG. 11). Groundwater was contaminated with chlorinated solvents, primarily PCE and trichloroethene (TCE). The plume extends over 100 meters (m) downgradient of the source area and is generally limited in extent to approximately 20 m below ground surface. The groundwater gradient is relatively flat and is influenced by tidal fluctuations. The net gradient direction is southeasterly. The Seal Beach National Wildlife Refuge lies downgradient of the site.
The tests were conducted in the area interpreted to have the highest PCE concentrations in groundwater. The tests were conducted over an 8-month period from August 2001 through mid-March 2002. Approximately 210,000 liters (55,500 gallons) of 3 percent sodium lactate solution was injected. A direct injection system was selected over recirculation to avoid reinjection of untreated water into the test cell. A 60 percent sodium lactate solution (JRW Technologies, Lenexa, Kans.) was diluted to 3 percent with potable water using a proportional injector (Dosatron International, Bordeaux, France). Lactate was injected at an average rate of approximately 3,550 gallons per week for the first 2 months. The average injection rate was then adjusted to approximately 750 gallons per week to maintain optimum electron-donor concentrations. No clogging or fouling effects were observed over the course of the pilot test. Water level measurements were performed during injection to assess the induced gradient.
Effects were monitored in seven wells in the pilot-test area. Two wells are located crossgradient and five downgradient of the injection well at distances ranging from approximately 2 to 30 m. Pretest groundwater samples were collected to establish baseline conditions. Weekly groundwater samples were collected during and analyzed on-site using field test kits for sulfate, ferrous iron, alkalinity, chemical oxygen demand (COD) (Hach, Loveland, Colo.), nitrate, and carbon dioxide (CHEMetrics, Calverton, Va.) and direct reading instrumentation for pH, temperature, conductivity, oxidation-reduction potential, and dissolved oxygen (YSI, Yellow Springs, Ohio). Monthly groundwater samples were analyzed off-site for volatile organic compounds, alkalinity, COD, anions, cations, total dissolved solids (Columbia Analytical Services, Kelso, Wash.), and dissolved gases (Performance Analytical, Simi Valley, Calif.). Samples were periodically analyzed for organic acids (Idaho National Engineering and Environmental Laboratory [INEEL], Idaho Falls, Id.), phospholipid fatty acids (Microbial Insights, Rockford, Tenn.), and DNA typing using quantitative polymerase chain reaction (PCR) and terminal restriction fragment length polymorphisms (T-RFLP) analyses (University of California, Berkeley, Calif.), according to methods well known in the art.

A short description of data set [4]: Surface tension of electron donor solutions, pendant drop method. In kind it is physicochemical. To be noted: for change in surface tension: 0% ethyl lactate. The method, then:
as §1
The laboratory study performed to confirm the co-solvent properties of the high concentration electron donor solution measured the surface tension of electron donor solutions at various concentrations. Next, interfacial tensions between the same electron donor solutions and nonaqueous phase TCE were measured. […] Surface and interfacial tension measurements were made using the pendant drop method (M. J. Rosen, ed., Structure/Performance Relationships in Surfactants, American Chemical Society, Washington D.C. 329 (1984); R. D. Bagnall & P. A. Arundel, The Profile Area of Pendant Drops, 82 J. Phys. Chem. 898 (1978)) coupled with real-time video imaging (M. D. Herd et al., Interfacial Tensions of Microbial Surfactants Determined by Real-Time Video Imaging of Pendant Drops, Proceedings paper number SPE/DOE 24206 513-519, SPE/DOE Eighth Symposium on Enhanced Oil Recovery, Tulsa, Okla. (1992)). […]

Data set [5] deals with chloroethenes (primarily TCE) in ground water. The data set is described as follows: Field evaluation of enhanced in situ bioremediation, Test Area North (Example 1). The following applies: all wells receiving significant lactate concentrations. Here is the method:
A 1-year field evaluation of enhanced in situ bioremediation was performed at Test Area North (“TAN”) of the Idaho National Engineering and Environmental Laboratory. […] The locations of a 5,000 μg/L TCE isopleth (14); 1,000 μg/L TCE isopleth (16); 100 μg/L TCE isopleth (18); and 5 μg/L TCE isopleth (20) are shown by solid lines. FIG. 2 illustrates a cross section of this site, showing the surface of the ground (22), an approximately 63-m (210-feet) fractured basalt unsaturation zone (24) (not drawn to scale), an approximately 60-m (200-feet) fractured basalt aquifer (26), and an impermeable clay interbed (28). […]
The initial electron donor addition strategy involved continuous injection of potable water at 37.85 liters/minute (10 gpm) into Well TSF-05. […] It was determined that the continuous injection of clean water at 37.85 liters/minute (10 gpm) overwhelmed the flux of contaminants from the secondary source. […] This was intended to prevent significant quantities of electron donor from collecting in the injection well and to help prevent biofouling. […]
Eleven monitoring wells (i.e., TAN-D2, TAN-9, TAN-10A, TAN-25, TAN-26, TAN-27, TAN-28, TAN-29, TAN-30A, TAN-31, and TAN-37) were sampled biweekly and analyzed for electron donors, biological activity indicators, competing inorganic electron acceptors and their reduced products, chloroethenes, ethene, pH, temperature, and specific conductivity.

Consider `CC(O)C(=O)[O-].[Na+]` (centres unmarked) [sodium lactate], for which, in data set [1] (10 of 15 wells), the TCE concentrations result was “below detectable levels and/or the maximum contaminant level (MCL)”. Moreover, the TCE concentration entry in data set [1] (well 03-010MW, pre-lactate around 5,690) was “approximately 50 μg/L”; in data set [1] (well 03-020MW, pre-lactate around 4,600) it was approximately 130 µg/L. The “interfacial tension as % of the value at 0.1% sodium lactate” value in data set [2] (sodium lactate 30%) worked out at 47%. The “decrease of interfacial tension” value in data set [2] (sodium lactate increased from 0.1 to 3%) is “about 26%”. In data set [3] (at least one well, following injection), the “increase of PCE concentrations” value is “greater than fifteen-fold”. In addition, the “reductive dechlorination of PCE and TCE” value in data set [3] (by the third month) is reported as “dramatically transformed to cis-1,2-DCE”. Also, the “biomass (phospholipid fatty acid analysis)” value in data set [3] (close to the injection well) is “increased up to an order of magnitude”. The figures for the “radius of influence within which PCE was converted to DCE” value in data set [3] (crossgradient) and in data set [3] (downgradient) were “approximately 6 m” and approximately 8 m, respectively. The “change in surface tension” value is on record as “almost no change” in data set [4] (sodium lactate 0.01 to 7%); “dramatic decrease” in data set [4] (sodium lactate increased to 30 and 60%). Also, in data set [5], the “reductive dechlorination of TCE to ethene” value is “Enhanced reductive dechlorination of TCE to ethene was observed”.
As to `CCOC(=O)C(C)O` (centres unmarked) [ethyl lactate], the “effect on the solution's surface tension” value in data set [4] (1% and 10% ethyl lactate added to sodium lactate solutions) is on record as “pronounced effect”.
